Assay [1] concerns Rattus norvegicus. The assay can be described thus: Antistress activity against food and water deprivation-induced stress in rat assessed as reduction in malondialdehyde formation at 0.055 mmol/kg, ip after 3 hrs. The format is functional.
For assay [2], the system named is Rattus norvegicus. The assay can be described thus: Antihyperlipidemic activity in triton WR 1339 treated rat assessed as plasma total cholesterol at 56 umol/kg, ip measured after 24 hrs. It counts as functional.
In assay [3] the test system is Rattus norvegicus. Put plainly: Antistress activity against food and water deprivation-induced stress in rat assessed as increase in thymus weight measured per 100 gm of body weight at 0.055 mmol/kg, ip after 3 hrs. It counts as functional.
Assay [4] has as its system Rattus norvegicus. The assay can be described thus: Antihyperlipidemic activity in triton WR 1339 treated rat assessed as LDL-cholesterol at 56 umol/kg, ip measured after 24 hrs. The format is functional.
The species named for assay [5] is Rattus norvegicus. The assay can be described thus: Antistress activity in rat assessed as decrease in stress-induced hepatic cytochrome P450 level by spectroscopically. It counts as functional. Details: scale not given: the % may be the effect or the level left.
The subject of assay [6] is Brain. Put plainly: Antioxidant activity in rat brain homogenate assessed as malondialdehyde release. The format is functional, tissue-based.
Assay [7] deals with Rattus norvegicus. The assay can be described thus: Antistress activity against food and water deprivation-induced stress in rat assessed as decrease in uropepsinogen level in urine at 0.055 mmol/kg, ip after 3 hrs. The format is functional.
Assay [8] concerns Rattus norvegicus. Put plainly: Antihyperlipidemic activity in triton WR 1339 treated rat assessed as triglyceride at 56 umol/kg, ip measured after 24 hrs. It counts as functional.
The species named for assay [9] is Rattus norvegicus. Put plainly: Antistress activity in rat assessed as decrease in stress-induced oxidative N-demethylation of erythromycin. It counts as functional. The arrangement: scale not given: the % may be the effect or the level left.
Assay [10] relates to Rattus norvegicus. The assay can be described thus: Antistress activity against food and water deprivation-induced stress in rat assessed as increase in adrenal weight measured per 100 gm of body weight at 0.055 mmol/kg, ip after 3 hrs. It counts as functional.
In assay [11] the test system is Rattus norvegicus. The assay can be described thus: Antistress activity against food and water deprivation-induced stress in rat assessed as change in body weight at 0.055 mmol/kg, ip after 3 hrs. It counts as functional.
For assay [12], the system named is Rattus norvegicus. Put plainly: Antistress activity against food and water deprivation-induced stress in rat assessed as increase in liver weight measured per 100 gm of body weight at 0.055 mmol/kg, ip after 3 hrs. The format is functional.

Broadly, the IC50 is the midpoint of a concentration-inhibition curve.

Regarding `Cc1c(C)c2c(c(C)c1O)CC[C@](C)(C(=O)NCCCC(=O)OC1N=C(c3ccccc3Cl)c3cc(Cl)ccc3NC1=O)O2` (some centres undefined), the Activity in assay [1] worked out at 37.5 nmol/mg; in assay [2], 40%; in assay [3] it was 117 mg; in assay [4], 40%; in [5], 35%; in assay [7], 34 kiloU/hr. The Activity in [8] is 40%; in [9], 40%; in [10] it was 34 mg; in assay [11], -10%; in assay [12], 4.2 mg. Also, in assay [6], the IC50 was 1.1 µM.
Regarding `CC(C)(C)c1cc(C(=O)NCCCC(=O)OC2N=C(c3ccccc3Cl)c3cc(Cl)ccc3NC2=O)cc(C(C)(C)C)c1O` (centres undefined), the Activity in assay [1] is on record as 41.2 nmol/mg; in assay [2], 40%; in [3], 151 mg; in [4] it was 40%; in assay [7], 30 kiloU/hr; in assay [8], 40%. Besides, the Activity in [10] is recorded as 40 mg; in assay [11], -3.8%; in [12], 4.5 mg. The IC50 in assay [6] turned out to be 24 µM.
Take `CC(C)(C)c1cc(C(=O)O)cc(C(C)(C)C)c1O`: the IC50 in assay [6] turned out to be 257 µM.
Same read-out and setting: to `Cc1c(C)c2c(c(C)c1O)CC[C@](C)(C(=O)O)O2` [(R)-TROLOX] belongs 25 µM.
